Measurements as given in patent US20160102002A1, “WATER TREATMENT” (BWA WATER ADDITIVES UK LIMITED, priority 2014, published 2016).

Columns and labels:
[1] = test system: Desulfovibrio vulgaris; assay: Log10 reduction of viable anaerobic bacteria in dosed high-TDS suspension (serial dilution into API RP 38 media vials); assay type: cell-based; conditions: pH 7 phosphate buffer, room temperature, ppm per example
Experimental: (§1) A suspension of Desulfovibrio vulgaris plus Enterobacter aerogenes bacteria containing from 1×10^6 to 1×10^8 cells/mL was prepared in sterile pH 7 phosphate buffer containing varying levels of sodium chloride to give the desired total dissolved solids (TDS) concentration. Aliquots of this suspension were dosed with the indicated concentrations of phosphonium compound (a) and stabilised halogen containing composition (b) with the concentrations being measured as ppm by weight of the stated composition in the dosed suspension. The mixtures were allowed to stand at room temperature. At the designated contact times, each mixture was sampled to determine the total number of viable cells of both Desulfovibrio vulgaris and Enterobacter aerogenes by serial 10-fold dilution into API RP 38 media vials and anaerobic acid producing media vials, respectively. The vials were incubated at 37° C. for 72 hours. Results were recorded as cells per milliliter. […]
(§2) The efficacy of the treatment agents was evaluated by measuring the Log 10 Reduction of the anaerobic bacterium Desulfovibrio vulgaris and the facultative anaerobeic bacterium Enterobacter aerogenes after contact times of 1 hour and 24 hours as detailed in Tables 1 and 2. […]

[2] = test system: Enterobacter aerogenes; assay: Log10 reduction of viable facultative anaerobic bacteria in dosed high-TDS suspension (serial dilution into anaerobic acid producing media vials); assay type: cell-based; conditions: pH 7 phosphate buffer, room temperature, ppm per example
Experimental: as §1, §2

[3] = TDS 100,000 mg l^-1, contact time 1 hour
[4] = TDS 100,000 mg l^-1, contact time 24 hours

Structure (SMILES) | Log10 Reduction Anaerobes [1, 3] | Log10 Reduction Facultative Anaerobes [2, 3] | Log10 Reduction Anaerobes [1, 4] | Log10 Reduction Facultative Anaerobes [2, 4]
CCCCCCCCCCCCCC[P+](CCCC)(CCCC)CCCC.[Cl-] [Example 3, tri n-butyl n-tetradecyl phosphonium chloride] | 0 | 0 |  | 
CCCCCCCCCCCCCC[P+](CCCC)(CCCC)CCCC.[Cl-] [Example 17, tri n-butyl n-tetradecyl phosphonium chloride] |  |  | 0 | 0
